The record followed here is PubChem BioAssay AID1259407 (Chemical Carcinogenesis Research Information System (CCRIS), 2018).

The source made the active and inactive calls. How the calls were made is not given here.

The data set deals with CCRIS mutagenicity, Ames/micronucleus/aberration tests. The experiment in a line: CCRIS mutagenicity studies. As to conditions: Test System: AMES SALMONELLA TYPHIMURIUM
Setting [1] is: Strain/Indicator: TA100, Metabolic Activation: NONE, Method: PREINCUBATION
Setting [2] is: Strain/Indicator: TA100, Metabolic Activation: NONE, Method: STANDARD PLATE.
The mark [3] stands for this setting: Strain/Indicator: TA98, Metabolic Activation: NONE, Method: STANDARD PLATE.

Consider `CC1CC(=O)O1` (stereo not given), for which the mutagenic call was “active; positive” (Strain/Indicator: G46, Metabolic Activation: NONE, Method: STANDARD PLATE); “active; positive” (Strain/Indicator: TA98, Metabolic Activation: HAMSTER, LIVER, S-9, AROCLOR 1254 (30%), Method: PREINCUBATION); “active; positive” (Strain/Indicator: TA98, Metabolic Activation: NONE, Method: PREINCUBATION); “active; positive” (Strain/Indicator: TA98, Metabolic Activation: RAT, LIVER, S-9, AROCLOR 1254 (30%), Method: PREINCUBATION); “active; positive” (Strain/Indicator: TA100, Metabolic Activation: HAMSTER, LIVER, S-9, AROCLOR 1254 (30%), Method: PREINCUBATION); “active; positive” under setting [1]. The mutagenic call (Strain/Indicator: TA100, Metabolic Activation: RAT, LIVER, S-9, AROCLOR 1254 (30%), Method: PREINCUBATION) is “active; positive”.

Regarding `CN1CC=C(c2ccccc2)CC1`, the mutagenic call was “inactive; negative” under setting [1] and “inactive; negative” (Strain/Indicator: TA102, Metabolic Activation: NONE, Method: PREINCUBATION).

With `ClCc1ccc(Br)cc1`, the mutagenic call under setting [2] is “inactive; negative”.

Consider `C[n+]1c2ccccc2cc2c(N)cccc21`, for which the mutagenic call (Strain/Indicator: TA1535, Metabolic Activation: NONE, Method: PREINCUBATION) is “inactive; negative”; the mutagenic call (Strain/Indicator: TA1535, Metabolic Activation: RAT, LIVER, S-9, TETRACHLOROBIPHENYL, Method: PREINCUBATION) was “inactive; negative”; the mutagenic call (Strain/Indicator: TA1537, Metabolic Activation: NONE, Method: PREINCUBATION) is “active; positive”; the mutagenic call (Strain/Indicator: TA1537, Metabolic Activation: RAT, LIVER, S-9, TETRACHLOROBIPHENYL, Method: PREINCUBATION) was “active; positive”; the mutagenic call (Strain/Indicator: TA1538, Metabolic Activation: NONE, Method: PREINCUBATION) was “inactive; negative”; the mutagenic call (Strain/Indicator: TA1538, Metabolic Activation: RAT, LIVER, S-9, TETRACHLOROBIPHENYL, Method: PREINCUBATION) is “inactive; negative”. In addition, the mutagenic call (Strain/Indicator: TA1977, Metabolic Activation: NONE, Method: PREINCUBATION) was “active; positive”.

For the molecule `Cc1cc(N)c([N+](=O)[O-])cc1N`, the mutagenic call is, setting by setting: under setting [3], “inactive; negative”; (Strain/Indicator: TA98, Metabolic Activation: RAT, LIVER, S-9, AROCLOR 1254, Method: STANDARD PLATE) “active; positive”; under setting [2], “inactive; negative”; (Strain/Indicator: TA100, Metabolic Activation: RAT, LIVER, S-9, AROCLOR 1254, Method: STANDARD PLATE) “inactive; negative”; (Strain/Indicator: TA1535, Metabolic Activation: NONE, Method: STANDARD PLATE) “inactive; negative”; (Strain/Indicator: TA1535, Metabolic Activation: RAT, LIVER, S-9, AROCLOR 1254, Method: STANDARD PLATE) “inactive; negative”. Moreover, the mutagenic call by setting is: (Strain/Indicator: TA1537, Metabolic Activation: NONE, Method: STANDARD PLATE) “inactive; negative”; (Strain/Indicator: TA1537, Metabolic Activation: RAT, LIVER, S-9, AROCLOR 1254, Method: STANDARD PLATE) “active; positive”; (Strain/Indicator: TA1538, Metabolic Activation: NONE, Method: STANDARD PLATE) “inactive; negative”; (Strain/Indicator: TA1538, Metabolic Activation: RAT, LIVER, S-9, AROCLOR 1254, Method: STANDARD PLATE) “active; positive”.

As for `Cc1ccc(/C=C/c2ccc(N)cc2)cc1`, the mutagenic call was “inactive; negative” (Strain/Indicator: TA98(1,8-DNP6), Metabolic Activation: NONE, Method: STANDARD PLATE); “active; positive” (Strain/Indicator: TA98(1,8-DNP6), Metabolic Activation: S-9, Method: STANDARD PLATE); “inactive; negative” under setting [3]; “active; positive” (Strain/Indicator: TA98, Metabolic Activation: RAT LIVER S9, AROCHLOR, Method: STANDARD PLATE); “active; positive” (Strain/Indicator: TA98, Metabolic Activation: S-9, Method: STANDARD PLATE); “inactive; negative” under setting [2]. The mutagenic call is “active; positive” (Strain/Indicator: TA100, Metabolic Activation: RAT, LIVER, S9, AROCLOR, Method: STANDARD PLATE) and “active; positive” (Strain/Indicator: TA100, Metabolic Activation: S-9, Method: STANDARD PLATE).
